# Source: patent US12077537B2 (Gilead Sciences, Inc., priority 2020, dated 2024)
# System: HIV-IIIb
# Test: Antiviral assay in MT4 cells
# Type: cell-based
# Conditions: Human immunodeficiency virus 1, MT4, 120 h; MT-4 cells mixed with HIV-IIIb at m.o.i. 0.003; 5 days at 37° C.; CellTiter-Glo luminescence; 50% decrease in signal, a measure of HIV-1 replication
# Procedure, shortened: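 Compound, tested at ten 3-fold dilutions in quadruplicate in 10% FBS medium, received MT-4 cells pre-mixed 1 hour with HIV-IIIb (m.o.i. 0.003). Protection was read as luminescent cell viability (CellTiter-Glo) after 5 days' culture at 37° C.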
row,SMILES,EC50 [nM]
1,"Cn1nc(NS(C)(=O)=O)c2cccc(-c3cc4sc(C#N)nc4nc3C(Cc3cc(F)cc(F)c3)NC(=O)Cn3nc(C(F)(F)F)c4c3C(F)(F)[C@@H]3C[C@H]43)c21 (stereo partly drawn) [Compound 131, N-(1-(2-cyano-6-(1-methyl-3-(methylsulfonamido)-1H-indazol-7-yl)thiazolo[4,5-b]pyridin-5-yl)-2-(3,5-difluorophenyl)ethyl)-2-((3bS,4aR)-5,5-difluoro-3-(trifluoromethyl)-3b,4,4a,5-tetrahydro-1H-cyclopropa[3,4]cyclopenta[1,2-c]pyrazol-1-yl)acetamide]",28.1
2,"Cn1nc(NS(C)(=O)=O)c2cccc(-c3cc4sc(-c5cn[nH]c5)nc4nc3C(Cc3cc(F)cc(F)c3)NC(=O)Cn3nc(C(F)(F)F)c4c3C(F)(F)[C@@H]3C[C@H]43)c21 (stereo partly drawn) [Compound 132, 2-((3bS,4aR)-5,5-difluoro-3-(trifluoromethyl)-3b,4,4a,5-tetrahydro-1H-cyclopropa[3,4]cyclopenta[1,2-c]pyrazol-1-yl)-N-(2-(3,5-difluorophenyl)-1-(6-(1-methyl-3-(methylsulfonamido)-1H-indazol-7-yl)-2-(1H-pyrazol-4-yl)thiazolo[4,5-b]pyridin-5-yl)ethyl)acetamide]",43.7
3,"Cn1nc(NS(C)(=O)=O)c2cccc(-c3cc4sc(-c5c[nH]cn5)nc4nc3C(Cc3cc(F)cc(F)c3)NC(=O)Cn3nc(C(F)(F)F)c4c3C(F)(F)[C@@H]3C[C@H]43)c21 (stereo partly drawn) [Compound 133, N-(1-(2-(1H-imidazol-4-yl)-6-(1-methyl-3-(methylsulfonamido)-1H-indazol-7-yl)thiazolo[4,5-b]pyridin-5-yl)-2-(3,5-difluorophenyl)ethyl)-2-((3bS,4aR)-5,5-difluoro-3-(trifluoromethyl)-3b,4,4a,5-tetrahydro-1H-cyclopropa[3,4]cyclopenta[1,2-c]pyrazol-1-yl)acetamide]",43.3
4,"CC(C)(C)OC(=O)N1CCC[C@H]1c1nc(-c2ccc(C#Cc3nc4nc([C@H](Cc5cc(F)cc(F)c5)NC(=O)Cn5nc(C(F)F)c6c5C(F)(F)CCC6(F)F)c(-c5ccc(F)c(C(N)=O)c5)cc4s3)cc2)c[nH]1 [Compound 137, tert-butyl (S)-2-(4-(4-((6-(3-carbamoyl-4-fluorophenyl)-5-((S)-1-(2-(3-(difluoromethyl)-4,4,7,7-tetrafluoro-4,5,6,7-tetrahydro-1H-indazol-1-yl)acetamido)-2-(3,5-difluorophenyl)ethyl)thiazolo[4,5-b]pyridin-2-yl)ethynyl)phenyl)-1H-imidazol-2-yl)pyrrolidine-1-carboxylate]",409
5,"NC(=O)c1cc(-c2cc3sc(C#Cc4ccc(-c5c[nH]c([C@@H]6CCCN6)n5)cc4)nc3nc2[C@H](Cc2cc(F)cc(F)c2)NC(=O)Cn2nc(C(F)F)c3c2C(F)(F)CCC3(F)F)ccc1F [Compound 138, 5-(5-((S)-1-(2-(3-(difluoromethyl)-4,4,7,7-tetrafluoro-4,5,6,7-tetrahydro-1H-indazol-1-yl)acetamido)-2-(3,5-difluorophenyl)ethyl)-2-((4-(2-((S)-pyrrolidin-2-yl)-1H-imidazol-4-yl)phenyl)ethynyl)thiazolo[4,5-b]pyridin-6-yl)-2-fluorobenzamide]",112
6,"NC(=O)c1cc(-c2cc3sc(N4CCN(c5ccc6c(c5)OCCO6)CC4)nc3nc2[C@H](Cc2cc(F)cc(F)c2)NC(=O)Cn2nc(C(F)F)c3c2C(F)(F)CCC3(F)F)ccc1F [Compound 139, (S)-5-(5-(1-(2-(3-(difluoromethyl)-4,4,7,7-tetrafluoro-4,5,6,7-tetrahydro-1H-indazol-1-yl)acetamido)-2-(3,5-difluorophenyl)ethyl)-2-(4-(2,3-dihydrobenzo[b][1,4]dioxin-6-yl)piperazin-1-yl)thiazolo[4,5-b]pyridin-6-yl)-2-fluorobenzamide]",545
7,"NC(=O)c1cc(-c2cc3sc(N4CCN(c5ccc(Cl)cc5)CC4)nc3nc2[C@H](Cc2cc(F)cc(F)c2)NC(=O)Cn2nc(C(F)(F)F)c3c2C(F)(F)[C@@H]2C[C@H]32)ccc1F [Compound 140, 5-(2-(4-(4-chlorophenyl)piperazin-1-yl)-5-((S)-1-(2-((3bS,4aR)-5,5-difluoro-3-(trifluoromethyl)-3b,4,4a,5-tetrahydro-1H-cyclopropa[3,4]cyclopenta[1,2-c]pyrazol-1-yl)acetamido)-2-(3,5-difluorophenyl)ethyl)thiazolo[4,5-b]pyridin-6-yl)-2-fluorobenzamide]",1370

# Stronger by EC50, values ahead:
row,EC50 [nM],SMILES
1,16.9,"Cn1nc(NS(C)(=O)=O)c2cccc(-c3cc4scnc4nc3C(Cc3cc(F)cc(F)c3)NC(=O)Cn3nc(C(F)(F)F)c4c3C(F)(F)[C@@H]3C[C@H]43)c21 (stereo partly drawn) [Compound 129, 2-((3bS,4aR)-5,5-difluoro-3-(trifluoromethyl)-3b,4,4a,5-tetrahydro-1H-cyclopropa[3,4]cyclopenta[1,2-c]pyrazol-1-yl)-N-(2-(3,5-difluorophenyl)-1-(6-(1-methyl-3-(methylsulfonamido)-1H-indazol-7-yl)thiazolo[4,5-b]pyridin-5-yl)ethyl)acetamide]"
2,6,"Cc1nc2nc(C(Cc3cc(F)cc(F)c3)NC(=O)Cn3nc(C(F)(F)F)c4c3C(F)(F)[C@@H]3C[C@H]43)c(-c3cccc4c(NS(C)(=O)=O)nn(C)c34)cc2s1 (stereo partly drawn) [Compound 130, 2-((3bS,4aR)-5,5-difluoro-3-(trifluoromethyl)-3b,4,4a,5-tetrahydro-1H-cyclopropa[3,4]cyclopenta[1,2-c]pyrazol-1-yl)-N-(2-(3,5-difluorophenyl)-1-(2-methyl-6-(1-methyl-3-(methylsulfonamido)-1H-indazol-7-yl)thiazolo[4,5-b]pyridin-5-yl)ethyl)acetamide]"
3,10.2,"Cn1cnc(-c2nc3nc(C(Cc4cc(F)cc(F)c4)NC(=O)Cn4nc(C(F)(F)F)c5c4C(F)(F)[C@@H]4C[C@H]54)c(-c4cccc5c(NS(C)(=O)=O)nn(C)c45)cc3s2)c1 (stereo partly drawn) [Compound 134, 2-((3bS,4aR)-5,5-difluoro-3-(trifluoromethyl)-3b,4,4a,5-tetrahydro-1H-cyclopropa[3,4]cyclopenta[1,2-c]pyrazol-1-yl)-N-(2-(3,5-difluorophenyl)-1-(2-(1-methyl-1H-imidazol-4-yl)-6-(1-methyl-3-(methylsulfonamido)-1H-indazol-7-yl)thiazolo[4,5-b]pyridin-5-yl)ethyl)acetamide]"
4,18,"Cn1nc(NS(C)(=O)=O)c2c(Cl)ccc(-c3cc4[nH]c(=O)ccc4nc3C(Cc3cc(F)cc(F)c3)NC(=O)Cn3nc(C(F)F)c4c3C(F)(F)[C@@H]3C[C@H]43)c21 (stereo partly drawn) [Compound 135, N-(1-(3-(4-chloro-1-methyl-3-(methylsulfonamido)-1H-indazol-7-yl)-6-oxo-5,6-dihydro-1,5-naphthyridin-2-yl)-2-(3,5-difluorophenyl)ethyl)-2-((3bS,4aR)-3-(difluoromethyl)-5,5-difluoro-3b,4,4a,5-tetrahydro-1H-cyclopropa[3,4]cyclopenta[1,2-c]pyrazol-1-yl)acetamide]"
5,4.3,"Cn1nc(NS(C)(=O)=O)c2c(Cl)ccc(-c3cc4c(nc3[C@H](Cc3cc(F)cc(F)c3)NC(=O)Cn3nc(C(F)F)c5c3C(F)(F)[C@@H]3C[C@H]53)CCC(=O)N4)c21 [Compound 136, N—((S)-1-(3-(4-chloro-1-methyl-3-(methylsulfonamido)-1H-indazol-7-yl)-6-oxo-5,6,7,8-tetrahydro-1,5-naphthyridin-2-yl)-2-(3,5-difluorophenyl)ethyl)-2-((3bS,4aR)-3-(difluoromethyl)-5,5-difluoro-3b,4,4a,5-tetrahydro-1H-cyclopropa[3,4]cyclopenta[1,2-c]pyrazol-1-yl)acetamide]"
